{
  "source": "the NIST ThermoML archive (doi:10.1016/j.fluid.2007.07.066)",
  "assay": "refractive index (Na D-line) (dimensionless); mn = molality of the nth substance listed, in mol/kg",
  "conditions": "298.15 K, 101 kPa, Liquid, Standard Abbe refractometry",
  "note": "± gives the expanded uncertainty stated by the source.",
  "data": [
    {"smiles": "O=P([O-])([O-])O.[Na+].[Na+]", "note": "[disodium hydrogen phosphate] + O", "values": [
      {"measurement": "refractive index", "setting": "m1 = 0.0049", "value": "1.3328 ± 0.0004"},
      {"measurement": "refractive index", "setting": "m1 = 0.0104", "value": "1.3329 ± 0.0004"},
      {"measurement": "refractive index", "setting": "m1 = 0.0154", "value": "1.3331 ± 0.0004"},
      {"measurement": "refractive index", "setting": "m1 = 0.0211", "value": "1.3333 ± 0.0004"},
      {"measurement": "refractive index", "setting": "m1 = 0.0413", "value": "1.334 ± 0.0004"},
      {"measurement": "refractive index", "setting": "m1 = 0.0712", "value": "1.3348 ± 0.0004"},
      {"measurement": "refractive index", "setting": "m1 = 0.1066", "value": "1.3357 ± 0.0004"},
      {"measurement": "refractive index", "setting": "m1 = 0.1437", "value": "1.3367 ± 0.0004"},
      {"measurement": "refractive index", "setting": "m1 = 0.1927", "value": "1.3379 ± 0.0004"},
      {"measurement": "refractive index", "setting": "m1 = 0.2475", "value": "1.3392 ± 0.0004"},
      {"measurement": "refractive index", "setting": "m1 = 0.3697", "value": "1.3421 ± 0.0004"},
      {"measurement": "refractive index", "setting": "m1 = 0.4438", "value": "1.3438 ± 0.0004"},
      {"measurement": "refractive index", "setting": "m1 = 0.5295", "value": "1.3458 ± 0.0004"},
      {"measurement": "refractive index", "setting": "m1 = 0.6125", "value": "1.3476 ± 0.0004"},
      {"measurement": "refractive index", "setting": "m1 = 0.6768", "value": "1.349 ± 0.0004"},
      {"measurement": "refractive index", "setting": "m1 = 0.7479", "value": "1.3505 ± 0.0004"},
      {"measurement": "refractive index", "setting": "m1 = 0.8346", "value": "1.3524 ± 0.0004"},
      {"measurement": "refractive index", "setting": "m1 = 0.9695", "value": "1.3551 ± 0.0004"}
    ]}
  ]
}
